Laboratory results published in PubChem BioAssay (NCI).
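Compound exposure: 48 hours, 5 concentrations, 96-well plates. GI50: concentration for 50% inhibition of growth. TGI is the concentration that stops growth completely.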

What was measured:
Experiment in all cases: NCI anticancer screen, dose series, 48 h
LOX IMVI melanoma = test system: LOX IMVI melanoma
TK-10 renal = test system: TK-10 renal
MOLT-4 leukemia = test system: MOLT-4 leukemia
COLO 205 colon = test system: COLO 205 colon
A549 NSCLC = test system: A549 NSCLC
HCT-15 colon = test system: HCT-15 colon
OVCAR-3 ovarian = test system: OVCAR-3 ovarian
MDA-MB-231 breast = test system: MDA-MB-231 breast
SF-268 CNS = test system: SF-268 CNS
CAKI-1 renal = test system: CAKI-1 renal
SNB-19 CNS = test system: SNB-19 CNS
U251 CNS = test system: U251 CNS
CCRF-CEM leukemia = test system: CCRF-CEM leukemia
NCI-H23 lung = test system: NCI-H23 lung
NCI/ADR-RES ovarian = test system: NCI/ADR-RES ovarian
SW-620 colon = test system: SW-620 colon
BT-549 breast = test system: BT-549 breast
HCC-2998 colon = test system: HCC-2998 colon
HCT-116 colon = test system: HCT-116 colon
SNB-75 CNS = test system: SNB-75 CNS
NCI-H226 lung = test system: NCI-H226 lung
UACC-62 melanoma = test system: UACC-62 melanoma
SF-539 CNS = test system: SF-539 CNS
IGROV1 ovarian = test system: IGROV1 ovarian
SK-MEL-5 melanoma = test system: SK-MEL-5 melanoma
OVCAR-5 ovarian = test system: OVCAR-5 ovarian
M14 melanoma = test system: M14 melanoma
T-47D breast = test system: T-47D breast
A498 renal = test system: A498 renal
MDA-MB-435 = test system: MDA-MB-435
SR leukemia = test system: SR leukemia
OVCAR-4 ovarian = test system: OVCAR-4 ovarian
RPMI-8226 leukemia = test system: RPMI-8226 leukemia
MALME-3M melanoma = test system: MALME-3M melanoma
KM12 colon = test system: KM12 colon
DU-145 prostate = test system: DU-145 prostate
ACHN renal = test system: ACHN renal
PC-3 prostate = test system: PC-3 prostate
SF-295 CNS = test system: SF-295 CNS
K-562 leukemia = test system: K-562 leukemia
UACC-257 melanoma = test system: UACC-257 melanoma
SK-MEL-2 melanoma = test system: SK-MEL-2 melanoma
EKVX NSCLC = test system: EKVX NSCLC
HOP-92 NSCLC = test system: HOP-92 NSCLC
HT29 colon = test system: HT29 colon
HOP-62 NSCLC = test system: HOP-62 NSCLC
UO-31 renal = test system: UO-31 renal
MCF7 breast = test system: MCF7 breast
HL-60(TB) leukemia = test system: HL-60(TB) leukemia
SK-OV-3 ovarian = test system: SK-OV-3 ovarian
OVCAR-8 ovarian = test system: OVCAR-8 ovarian
SN12C renal = test system: SN12C renal
HS 578T breast = test system: HS 578T breast
NCI-H522 lung = test system: NCI-H522 lung
RXF 393 renal = test system: RXF 393 renal
NCI-H460 lung = test system: NCI-H460 lung
786-0 renal = test system: 786-0 renal
SK-MEL-28 melanoma = test system: SK-MEL-28 melanoma

`COc1ccc(C2C(C#N)=C(N)Oc3c2sc2c(C)cccc32)cc1` (centres undefined) showed a GI50 (LOX IMVI melanoma) of 0.592 µM, a TGI (LOX IMVI melanoma) of 10.8 µM and a GI50 (TK-10 renal) of 9.49 µM. It also gave a TGI (TK-10 renal) of 34.2 µM, a GI50 (MOLT-4 leukemia) of 0.524 µM and a TGI (MOLT-4 leukemia) of 9.43 µM. It also gave a GI50 (COLO 205 colon) of 0.933 µM, a TGI (COLO 205 colon) of 8.68 µM and a GI50 (A549 NSCLC) of 0.724 µM. For the same compound, the TGI (A549 NSCLC) was 21.6 µM, the GI50 (HCT-15 colon) was 0.408 µM and the TGI (HCT-15 colon) was 7.32 µM. It also gave a GI50 (OVCAR-3 ovarian) of 0.414 µM, a TGI (OVCAR-3 ovarian) of 12.8 µM and a GI50 (MDA-MB-231 breast) of 1.22 µM. The TGI (MDA-MB-231 breast) was 10.6 µM, the GI50 (SF-268 CNS) was 1.2 µM and the TGI (SF-268 CNS) was 21.6 µM. The GI50 (CAKI-1 renal) was 0.381 µM, the TGI (CAKI-1 renal) was 16.7 µM and the GI50 (SNB-19 CNS) was 0.52 µM. For the same compound, the TGI (SNB-19 CNS) was 15.2 µM, the GI50 (U251 CNS) was 0.489 µM and the TGI (U251 CNS) was 16 µM. For the same compound, the GI50 (CCRF-CEM leukemia) was 0.341 µM, the TGI (CCRF-CEM leukemia) was greater than 64.8 µM and the GI50 (NCI-H23 lung) was 0.474 µM. The TGI (NCI-H23 lung) was 12.8 µM, the GI50 (NCI/ADR-RES ovarian) was 0.332 µM and the TGI (NCI/ADR-RES ovarian) was 5.75 µM. The GI50 (SW-620 colon) was 0.441 µM, the TGI (SW-620 colon) was 16.2 µM and the GI50 (BT-549 breast) was 0.956 µM. The TGI (BT-549 breast) was 7.83 µM, the GI50 (HCC-2998 colon) was 1.03 µM and the TGI (HCC-2998 colon) was 7.39 µM. The GI50 (HCT-116 colon) was 0.362 µM, the TGI (HCT-116 colon) was 6.96 µM and the GI50 (SNB-75 CNS) was 0.221 µM. The TGI (SNB-75 CNS) was 0.709 µM, the GI50 (NCI-H226 lung) was 0.59 µM and the TGI (NCI-H226 lung) was 15.8 µM. For the same compound, the GI50 (UACC-62 melanoma) was 0.375 µM, the TGI (UACC-62 melanoma) was 11.9 µM and the GI50 (SF-539 CNS) was 0.297 µM. The TGI (SF-539 CNS) was 1.24 µM, the GI50 (IGROV1 ovarian) was 0.449 µM and the TGI (IGROV1 ovarian) was 14.5 µM. It also gave a GI50 (SK-MEL-5 melanoma) of 0.427 µM, a TGI (SK-MEL-5 melanoma) of 13.2 µM and a GI50 (OVCAR-5 ovarian) of 0.636 µM. The TGI (OVCAR-5 ovarian) was 14.2 µM, the GI50 (M14 melanoma) was 0.304 µM and the TGI (M14 melanoma) was 13.4 µM. The GI50 (T-47D breast) was 0.552 µM, the TGI (T-47D breast) was 43.7 µM and the GI50 (A498 renal) was 0.199 µM. For the same compound, the TGI (A498 renal) was 0.772 µM, the GI50 (MDA-MB-435) was 0.188 µM and the TGI (MDA-MB-435) was 0.441 µM. For the same compound, the GI50 (SR leukemia) was 0.215 µM, the TGI (SR leukemia) was 15 µM and the GI50 (OVCAR-4 ovarian) was 2.24 µM. For the same compound, the TGI (OVCAR-4 ovarian) was 22.5 µM, the GI50 (RPMI-8226 leukemia) was 0.384 µM and the TGI (RPMI-8226 leukemia) was 5.53 µM. The GI50 (MALME-3M melanoma) was 0.431 µM, the TGI (MALME-3M melanoma) was 21 µM and the GI50 (KM12 colon) was 0.46 µM. The TGI (KM12 colon) was 14.5 µM, the GI50 (DU-145 prostate) was 0.596 µM and the TGI (DU-145 prostate) was 18.6 µM. The GI50 (ACHN renal) was 0.757 µM, the TGI (ACHN renal) was 14.7 µM and the GI50 (PC-3 prostate) was 0.346 µM. For the same compound, the TGI (PC-3 prostate) was 13 µM, the GI50 (SF-295 CNS) was 0.293 µM and the TGI (SF-295 CNS) was 2.4 µM. The GI50 (K-562 leukemia) was 0.119 µM, the TGI (K-562 leukemia) was greater than 100 µM and the GI50 (UACC-257 melanoma) was 14.3 µM. It also gave a TGI (UACC-257 melanoma) of 42.1 µM, a GI50 (SK-MEL-2 melanoma) of 3.33 µM and a TGI (SK-MEL-2 melanoma) of 26.5 µM. It also gave a GI50 (EKVX NSCLC) of 0.677 µM, a TGI (EKVX NSCLC) of 21.3 µM and a GI50 (HOP-92 NSCLC) of 1.13 µM. The TGI (HOP-92 NSCLC) was 11.1 µM, the GI50 (HT29 colon) was 0.816 µM and the TGI (HT29 colon) was 12.7 µM. For the same compound, the GI50 (HOP-62 NSCLC) was 0.544 µM, the TGI (HOP-62 NSCLC) was 20.8 µM and the GI50 (UO-31 renal) was 0.34 µM. It also gave a TGI (UO-31 renal) of 13.5 µM, a GI50 (MCF7 breast) of 0.322 µM and a TGI (MCF7 breast) of 12.2 µM. For the same compound, the GI50 (HL-60(TB) leukemia) was 0.23 µM, the TGI (HL-60(TB) leukemia) was 1.06 µM and the GI50 (SK-OV-3 ovarian) was 0.613 µM. For the same compound, the TGI (SK-OV-3 ovarian) was 41.7 µM, the GI50 (OVCAR-8 ovarian) was 0.547 µM and the TGI (OVCAR-8 ovarian) was 17.4 µM. It also gave a GI50 (SN12C renal) of 0.578 µM, a TGI (SN12C renal) of 11.3 µM and a GI50 (HS 578T breast) of 0.3 µM. It also gave a TGI (HS 578T breast) of 2.28 µM, a GI50 (NCI-H522 lung) of 0.369 µM and a TGI (NCI-H522 lung) of 6.01 µM. The GI50 (RXF 393 renal) was 0.234 µM, the TGI (RXF 393 renal) was 0.628 µM and the GI50 (NCI-H460 lung) was 0.384 µM. For the same compound, the TGI (NCI-H460 lung) was 10.6 µM, the GI50 (786-0 renal) was 0.621 µM and the TGI (786-0 renal) was 14.6 µM. For the same compound, the GI50 (SK-MEL-28 melanoma) was 3.83 µM and the TGI (SK-MEL-28 melanoma) was 21.7 µM.

In the case of `C=C(C(=O)OC1C(CO)OC(OCC2CC[C@@H]3C[C@]4(OC(=O)C3=C)C(C)=CC(=O)C24)C(O)C1O)[C@@H]1CCC(CO)C2C(=O)C=C(C)[C@@]2(O)C1` (some centres undefined), the TGI (LOX IMVI melanoma) is reported as 6.32 µM, the TGI (TK-10 renal) is reported as 13.1 µM and the TGI (MOLT-4 leukemia) is reported as 8.41 µM. It also gave a TGI (COLO 205 colon) of 1.13 µM, a TGI (A549 NSCLC) of 18 µM and a TGI (HCT-15 colon) of 3.1 µM. The TGI (OVCAR-3 ovarian) was 14.7 µM, the TGI (MDA-MB-231 breast) was 3.26 µM and the TGI (SF-268 CNS) was 16.1 µM. It also gave a TGI (CAKI-1 renal) of 7.93 µM, a TGI (SNB-19 CNS) of 31.8 µM and a TGI (U251 CNS) of 16 µM. It also gave a TGI (CCRF-CEM leukemia) of 1.3 µM, a TGI (NCI-H23 lung) of 5.12 µM and a TGI (NCI/ADR-RES ovarian) of 11.2 µM. It also gave a TGI (SW-620 colon) of 13.3 µM, a TGI (BT-549 breast) of 3.52 µM and a TGI (HCC-2998 colon) of 4.29 µM. For the same compound, the TGI (HCT-116 colon) was 3.07 µM, the TGI (SNB-75 CNS) was 29 µM and the TGI (NCI-H226 lung) was 20.2 µM. It also gave a TGI (UACC-62 melanoma) of 3.35 µM, a TGI (SF-539 CNS) of 10.5 µM and a TGI (IGROV1 ovarian) of 12.6 µM. It also gave a TGI (SK-MEL-5 melanoma) of 2.75 µM, a TGI (OVCAR-5 ovarian) of 7.15 µM and a TGI (M14 melanoma) of 4.81 µM. The TGI (T-47D breast) was 24.3 µM, the TGI (A498 renal) was 9.86 µM and the TGI (MDA-MB-435) was 5.04 µM. It also gave a TGI (SR leukemia) of 11.6 µM, a TGI (OVCAR-4 ovarian) of 20.1 µM and a TGI (RPMI-8226 leukemia) of 9.12 µM. The TGI (MALME-3M melanoma) was 3.44 µM, the TGI (KM12 colon) was 8.31 µM and the TGI (DU-145 prostate) was 17.6 µM. For the same compound, the TGI (ACHN renal) was 12.3 µM, the TGI (PC-3 prostate) was 6.63 µM and the TGI (SF-295 CNS) was 35 µM. The TGI (K-562 leukemia) was 31.1 µM, the TGI (UACC-257 melanoma) was 5.17 µM and the TGI (SK-MEL-2 melanoma) was 8.29 µM. For the same compound, the TGI (EKVX NSCLC) was 8.61 µM, the TGI (HOP-92 NSCLC) was 6.66 µM and the TGI (HT29 colon) was 6.37 µM. It also gave a TGI (HOP-62 NSCLC) of 24.9 µM, a TGI (UO-31 renal) of 7.98 µM and a TGI (MCF7 breast) of 12.8 µM. The TGI (HL-60(TB) leukemia) was 3.76 µM, the TGI (SK-OV-3 ovarian) was 55.9 µM and the TGI (OVCAR-8 ovarian) was 14.8 µM. It also gave a TGI (SN12C renal) of 5.42 µM, a TGI (HS 578T breast) greater than 53.1 µM and a TGI (NCI-H522 lung) of 0.783 µM. It also gave a TGI (RXF 393 renal) of 4.14 µM, a TGI (NCI-H460 lung) of 13.7 µM and a TGI (786-0 renal) of 7.85 µM. The TGI (SK-MEL-28 melanoma) was 14.8 µM.
